Results published in the supplement of paper PMC10627819.

Columns and labels:
Assay in all cases: Bliss interaction score (quartile over a dose matrix) (fitness difference); higher = more antagonism (negative = synergy)
S. aureus DSM 20231 = system: S. aureus DSM 20231
Method in brief: (§1)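 Each OD595 reading at entry into stationary phase was scaled to the robust mean of the untreated wells on its plate, with a ceiling of 1. These ratios define fitness, and single-drug fitness was inferred from combinations. The Bliss score compares observed fitness with the product-based expectation and is reported as quartiles across all replicate types, technical, biological and donor/recipient.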

B. subtilis 168 = system: B. subtilis 168
Method in brief: as §1

S. pneumoniae D39V = system: S. pneumoniae D39V
Method in brief: as §1

S. aureus Newman = system: S. aureus Newman
Method in brief: as §1
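Also: first quartile when negative (synergy) and third quartile when positive (antagonism).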

In the case of `CC[C@H]1OC(=O)[C@H](C)[C@@H](O[C@H]2C[C@@](C)(OC)[C@@H](O)[C@H](C)O2)[C@H](C)[C@@H](O[C@@H]2O[C@H](C)C[C@H](N(C)C)[C@H]2O)[C@](C)(O)C[C@@H](C)C(=O)[C@H](C)[C@@H](O)[C@]1(C)O` [Erythromycin] + Cc1cc(NS(=O)(=O)c2ccc(N)cc2)no1 [Sulfamethoxazol], the Bliss interaction score (S. aureus DSM 20231) is reported as -0.0354, the Bliss interaction score (B. subtilis 168) is reported as -0.0511 and the Bliss interaction score (S. pneumoniae D39V) is reported as -0.0479. For the same compound, the Bliss interaction score (S. aureus Newman) was -0.0442.

In the case of `CN[C@H](CC(C)C)C(=O)N[C@H]1C(=O)N[C@@H](CC(N)=O)C(=O)N[C@H]2C(=O)N[C@H]3C(=O)N[C@H](C(=O)N[C@H](C(=O)O)c4cc(O)cc(O)c4-c4cc3ccc4O)[C@H](O[C@H]3C[C@](C)(N)[C@@H](O)[C@H](C)O3)c3ccc(c(Cl)c3)Oc3cc2cc(c3O[C@@H]2O[C@H](CO)[C@@H](O)[C@H](O)[C@H]2O[C@H]2C[C@](C)(NCc3ccc(-c4ccc(Cl)cc4)cc3)[C@@H](O)[C@H](C)O2)Oc2ccc(cc2Cl)[C@H]1O` [Oritavancin] + CO[C@H]1/C=C/O[C@@]2(C)Oc3c(C)c(O)c4c(O)c(c(/C=N/N5CCN(C)CC5)c(O)c4c3C2=O)NC(=O)/C(C)=C\C=C\[C@H](C)[C@H](O)[C@@H](C)[C@@H](O)[C@@H](C)[C@H](OC(C)=O)[C@@H]1C [Rifampicin], the Bliss interaction score (S. aureus DSM 20231) is reported as -0.0199, the Bliss interaction score (B. subtilis 168) is reported as -0.0184 and the Bliss interaction score (S. pneumoniae D39V) is reported as 0.106. For the same compound, the Bliss interaction score (S. aureus Newman) was 0.0357.

`CO[C@H]1/C=C/O[C@@]2(C)Oc3c(C)c(O)c4c(O)c(c(/C=N/N5CCN(C)CC5)c(O)c4c3C2=O)NC(=O)/C(C)=C\C=C\[C@H](C)[C@H](O)[C@@H](C)[C@@H](O)[C@@H](C)[C@H](OC(C)=O)[C@@H]1C` [Rifampicin] + Oc1cc(Cl)ccc1Oc1ccc(Cl)cc1Cl [Triclosan] showed a Bliss interaction score (S. aureus DSM 20231) of -0.0595, a Bliss interaction score (B. subtilis 168) of 0.0445 and a Bliss interaction score (S. pneumoniae D39V) of -0.0563. It also gave a Bliss interaction score (S. aureus Newman) of 0.0206.

In the case of `CO[C@@]12[C@H](COC(N)=O)C3=C(C(=O)C(C)=C(N)C3=O)N1C[C@@H]1N[C@@H]12` [MitomycinC] + COc1cc(Cc2cnc(N)nc2N)cc(OC)c1OC [Trimethoprim], the Bliss interaction score (S. aureus DSM 20231) is reported as -0.102, the Bliss interaction score (B. subtilis 168) is reported as -0.108 and the Bliss interaction score (S. pneumoniae D39V) is reported as -0.141. It also gave a Bliss interaction score (S. aureus Newman) of -0.127.

In the case of `CN[C@H](CC(C)C)C(=O)N[C@H]1C(=O)N[C@@H](CC(N)=O)C(=O)N[C@H]2C(=O)N[C@H]3C(=O)N[C@H](C(=O)N[C@H](C(=O)O)c4cc(O)cc(O)c4-c4cc3ccc4O)[C@H](O[C@H]3C[C@](C)(N)[C@@H](O)[C@H](C)O3)c3ccc(c(Cl)c3)Oc3cc2cc(c3O[C@@H]2O[C@H](CO)[C@@H](O)[C@H](O)[C@H]2O[C@H]2C[C@](C)(NCc3ccc(-c4ccc(Cl)cc4)cc3)[C@@H](O)[C@H](C)O2)Oc2ccc(cc2Cl)[C@H]1O` [Oritavancin] + Cc1onc(-c2ccccc2)c1C(=O)N[C@@H]1C(=O)N2[C@@H]1SC(C)(C)[C@@H]2C(=O)O [Oxacillin], the Bliss interaction score (S. aureus DSM 20231) is reported as -0.0461, the Bliss interaction score (B. subtilis 168) is reported as 0.0256 and the Bliss interaction score (S. pneumoniae D39V) is reported as -0.167. The Bliss interaction score (S. aureus Newman) was -0.0656.

In the case of `CC[C@H]1OC(=O)[C@H](C)[C@@H](O[C@H]2C[C@@](C)(OC)[C@@H](O)[C@H](C)O2)[C@H](C)[C@@H](O[C@@H]2O[C@H](C)C[C@H](N(C)C)[C@H]2O)[C@](C)(O)C[C@@H](C)C(=O)[C@H](C)[C@@H](O)[C@]1(C)O` [Erythromycin] + CN(C)c1cc(NC(=O)CNC(C)(C)C)c(O)c2c1C[C@H]1C[C@H]3[C@H](N(C)C)C(O)=C(C(N)=O)C(=O)[C@@]3(O)C(O)=C1C2=O [Tigecycline], the Bliss interaction score (S. aureus DSM 20231) is reported as -0.0257, the Bliss interaction score (B. subtilis 168) is reported as -0.0505 and the Bliss interaction score (S. pneumoniae D39V) is reported as -0.0975. It also gave a Bliss interaction score (S. aureus Newman) of -0.0253.

`CN[C@@H]1[C@H](O[C@H]2[C@H](O[C@H]3[C@H](O)[C@@H](O)[C@H](N=C(N)N)[C@@H](O)[C@@H]3N=C(N)N)O[C@@H](C)[C@]2(O)C=O)O[C@@H](CO)[C@H](O)[C@H]1O` [Streptomycin] + Oc1cc(Cl)ccc1Oc1ccc(Cl)cc1Cl [Triclosan] showed a Bliss interaction score (S. aureus DSM 20231) of -0.06, a Bliss interaction score (B. subtilis 168) of -0.249 and a Bliss interaction score (S. pneumoniae D39V) of 0.0606. The Bliss interaction score (S. aureus Newman) was -0.0312.

Compound `CC[C@H]1OC(=O)[C@H](C)[C@@H](O[C@H]2C[C@@](C)(OC)[C@@H](O)[C@H](C)O2)[C@H](C)[C@@H](O[C@@H]2O[C@H](C)C[C@H](N(C)C)[C@H]2O)[C@](C)(O)C[C@@H](C)C(=O)[C@H](C)[C@@H](O)[C@]1(C)O` [Erythromycin] + CN[C@@H]1[C@H](O[C@H]2[C@H](O[C@H]3[C@H](O)[C@@H](O)[C@H](N=C(N)N)[C@@H](O)[C@@H]3N=C(N)N)O[C@@H](C)[C@]2(O)C=O)O[C@@H](CO)[C@H](O)[C@H]1O [Streptomycin] has a Bliss interaction score (S. aureus DSM 20231) of 0.0256, a Bliss interaction score (B. subtilis 168) of 0.0844 and a Bliss interaction score (S. pneumoniae D39V) of -0.0481. The Bliss interaction score (S. aureus Newman) was -0.0695.

With `CO[C@@]12[C@H](COC(N)=O)C3=C(C(=O)C(C)=C(N)C3=O)N1C[C@@H]1N[C@@H]12` [MitomycinC] + CN1C2=CC=CC=C2N=C3C1=CC=CC3=O [Pyocyanin] the Bliss interaction score (S. aureus DSM 20231) was 0.0464, the Bliss interaction score (B. subtilis 168) was 0.0608 and the Bliss interaction score (S. pneumoniae D39V) was 0.0705. It also gave a Bliss interaction score (S. aureus Newman) of -0.0681.

In the case of `CC[C@H](C)[C@H](N)C1=N[C@H](C(=O)N[C@@H](CC(C)C)C(=O)N[C@H](CCC(=O)O)C(=O)N[C@H](C(=O)N[C@H]2CCCCNC(=O)[C@H](CC(N)=O)NC(=O)[C@@H](CC(=O)O)NC(=O)[C@H](Cc3cnc[nH]3)NC(=O)[C@@H](Cc3ccccc3)NC(=O)[C@H]([C@@H](C)CC)NC(=O)[C@@H](CCCN)NC2=O)[C@@H](C)CC)CS1` [Bacitracin] + C[C@@H](O)[C@H]1C(=O)N2C(C(=O)O)=C(SCCNC=N)C[C@H]12 [Imipenem], the Bliss interaction score (S. aureus DSM 20231; main component drawn) is reported as 0.0207, the Bliss interaction score (B. subtilis 168; main component drawn) is reported as -0.359 and the Bliss interaction score (S. pneumoniae D39V; main component drawn) is reported as -0.0576. For the same compound, the Bliss interaction score (S. aureus Newman; main component drawn) was -0.0113.
